Key:
Assay type in all cases: in vivo
[1] = system: mouse lung tumor line M (Madison) 109; test: Taxoprexin and paclitaxel against M 109 lung carcinoma in mice, treatment from day 4 (tumor about 30 mg); conditions: days 4 through 8, tumor about 30 mg at start
Method: Syngeneic mice were injected with mouse lung tumor line M (Madison) 109 sub-cutaneously in the flank. […] Both drugs were dissolved in 10% cremophor EL/10% ethanol/80% saline. Tumor volume was estimated from tumor width and length. […] (FIG. 1)

[2] = system: mouse lung tumor line M (Madison) 109; test: Taxoprexin and paclitaxel against M 109 lung carcinoma in mice, treatment from day 5 (tumors 300 mg); conditions: tumors 300 mg at start
Method: Syngeneic mice were injected with mouse lung tumor line M (Madison) 109 sub-cutaneously in the flank. […] Both drugs were dissolved in 10% cremophor EL/10% ethanol/80% saline. Tumor volume was estimated from tumor width and length. […] (FIG. 2)

[3] = system: human NCI-H522 lung tumor; test: Response of human NCI-H522 lung tumor in nude mice; conditions: day 15 to 19 after implantation
Method: The tumors were implanted sub-cutaneously. Tumor mass was determined by calculation from tumor length and width. The drugs were dissolved in 12.5% cremophor EL/12.5% ethanol/75% saline and delivered i.v. into the tail vein, once a day for 5 days, from day 15 to 19 after tumor implantation. […] (FIG. 3)

[4] = Plasma and tumor concentrations of paclitaxel in mice bearing M 109 or M 5076 tumors; conditions: for time for which levels of paclitaxel in tumors remain stable: tumors treated with the named drug
Method: The drug was dissolved in 10% cremophor EL/10% ethanol/80% saline. Mice were sacrificed and tumors immediately excised as a function of time after injecting the drug. Tumor tissue was homogenized and paclitaxel extracted. […] Blood was collected at the same time intervals and the amount of paclitaxel determined. […] Each data point is the mean of three measurements (n=3); the error bar is one standard deviation.

human HCT colon tumor = test: Cure of human HCT colon tumor in mice; conditions: HCT is a paclitaxel resistant tumor
[5] = Dose comparisons (MTD) of taxoprexin and paclitaxel in various species; conditions: mice, rats and dogs
From the text: Calculation of MTD in animals may be based on a number of physiological parameters, such as death, particular toxicities, drug induced weight loss. Using death as an endpoint, the MTD may be the dose given test animals in which each member of the test group survived. Using toxicity as an endpoint, the MTD may be the dose at which moderate but not severe toxicity is observed. Using weight loss as an endpoint, the MTD may be the dose above which a certain percent change in body weight is induced.

[6] = paclitaxel 20 mg/kg/day x 5 days i.v. bolus from day 5

Row | SMILES | retarded tumor growth (duration) ([1]; paclitaxel 20 mg/kg/day x 5 days i.v. bolus) | LCK [2, 6] | retarded tumor growth (duration) [2, 6] | mice with all measurable tumors eliminated ([3]; 20 mg/kg/day x 5 days i.v.) | t½ in tumor ([4]; paclitaxel in the same tumor system) | time for which levels of paclitaxel in tumors remain stable [4] | mice cured of tumor (human HCT colon tumor) | mice with all measurable tumors completely eliminated ([1]; taxoprexin 120 mg/kg/day x 5 days i.v. bolus) | mice with all measurable tumors completely eliminated ([2]; taxoprexin 80 mg/kg/day x 5 days i.v. bolus from day 5) | mice with all measurable tumors completely eliminated (C/T) ([2]; taxoprexin 120 mg/kg/day x 5 days i.v. bolus from day 5) | mice with all measurable tumors eliminated ([3]; 50 mg/kg/day x 5 days i.v.) | plasma concentration of paclitaxel derived from taxoprexin ([4]; after 24 hours, i.v. bolus 50 mg/kg taxoprexin) | tumor concentration of paclitaxel derived from taxoprexin ([4]; after 24 hours, i.v. bolus 50 mg/kg taxoprexin, M109 or M5076 tumors) | toxicity compared with paclitaxel [5]
1 | CC(=O)O[C@H]1C(=O)[C@@]2(C)[C@H]([C@H](OC(=O)c3ccccc3)[C@]3(O)C[C@H](OC(=O)[C@H](O)[C@@H](NC(=O)c4ccccc4)c4ccccc4)C(C)=C1C3(C)C)[C@]1(OC(C)=O)CO[C@@H]1C[C@@H]2O [paclitaxel, reference compound] | about four days | 1.0 | about four days | 10/10 | < 8 h | less than 8 hours | 0/8 |  |  |  |  |  |  | 
2 | CC/C=C\C/C=C\C/C=C\C/C=C\C/C=C\C/C=C\CCC(=O)O[C@@H](C(=O)O[C@H]1C[C@@]2(O)[C@@H](OC(=O)c3ccccc3)[C@@H]3[C@]4(OC(C)=O)CO[C@@H]4C[C@H](O)[C@@]3(C)C(=O)[C@H](OC(C)=O)C(=C1C)C2(C)C)[C@@H](NC(=O)c1ccccc1)c1ccccc1 [taxoprexin] |  |  |  |  |  | 24 h | 3/8 | eight out of eight | four out of seven | 7/8 | 10/10 | 70 nM | about 3 μM | less toxic
